In ChEMBL document CHEMBL1909046, “DrugMatrix in vitro pharmacology data”:
*1 amine or outer side, *2 acyl side, *3 side chain or, on linkers, in order; H or OH if unused. Where a SMILES comes first, the peptide text is derived from it. Bridges are numbered along the chain shown (N, C = ends). Roman numbers before positions name the chains, in order. [ ]: non-standard residue; d: D form. Actinocin(1to9) = Cc1c2oc3c(C)ccc(C(=O)[*:2])c3nc-2c(C(=O)[*:1])c(N)c1=O; NMeV = CN[C@H](C(=O)O)C(C)C; Sar = CNCC(=O)O

What was measured:
[1] = DRUGMATRIX: Glutamate, AMPA radioligand binding (ligand: [3H] AMPA); format: cell membranes, Rattus norvegicus, Wistar, Cerebral cortex, Membrane; conditions: Not Active = under 50% inhibition at 10 µM
[2] = biological target: Epidermal growth factor receptor (Homo sapiens, UniProt P00533); assay: DRUGMATRIX: Protein Tyrosine Kinase, EGF Receptor enzyme inhibition (substrate: Poly(Glu:Tyr)); format: cell-based, Insect cells; conditions: Not Active = under 50% inhibition at 10 µM
D(3) dopamine receptor = D(3) dopamine receptor (Homo sapiens, UniProt P35462); assay: DRUGMATRIX: Dopamine D3 radioligand binding (ligand: [3H] Spiperone); format: cell membranes, CHO, Membrane; conditions: for Ki: read-out: Ki
[3] = DRUGMATRIX: GABAA, Muscimol, Central radioligand binding (ligand: [3H] Muscimol); format: cell membranes, Rattus norvegicus, Wistar, Brain, Membrane; conditions: Not Active = under 50% inhibition at 10 µM
[4] = biological target: Protein phosphatase 3 catalytic subunit alpha (Homo sapiens, UniProt Q08209); set-up: species or system Escherichia coli;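 further: inhibition of calcineurin (PP2B) enzyme activity, measured with DiFMUP as the substrate; in other assays of this panel Not Active means under 50% inhibition at 10 µM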
Vasopressin V1a receptor = Vasopressin V1a receptor (Homo sapiens, UniProt P37288); format: cell membranes, Membrane; conditions: hek293; further: in other assays of this panel Not Active means under 50% inhibition at 10 µM
Caspase-1 = biological target: T1, Caspase-1 (Homo sapiens, UniProt P29466); set-up: species or system Escherichia coli;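 further: Caspase-1 enzyme inhibition assay with a peptide substrate; in other assays of this panel Not Active means under 50% inhibition at 10 µM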
T1 sequence (P29466 whole entry): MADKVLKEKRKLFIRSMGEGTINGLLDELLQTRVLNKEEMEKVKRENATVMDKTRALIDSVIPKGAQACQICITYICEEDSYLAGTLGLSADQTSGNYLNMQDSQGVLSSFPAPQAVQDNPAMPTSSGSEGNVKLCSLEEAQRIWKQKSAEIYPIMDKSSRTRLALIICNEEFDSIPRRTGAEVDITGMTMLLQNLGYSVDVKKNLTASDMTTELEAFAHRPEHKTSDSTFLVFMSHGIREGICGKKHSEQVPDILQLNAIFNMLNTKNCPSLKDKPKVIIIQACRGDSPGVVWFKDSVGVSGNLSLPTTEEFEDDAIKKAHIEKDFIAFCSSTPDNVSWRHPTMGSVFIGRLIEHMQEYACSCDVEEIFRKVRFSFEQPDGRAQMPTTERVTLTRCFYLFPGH

Sequence of Vasopressin V1a receptor (P37288 whole entry): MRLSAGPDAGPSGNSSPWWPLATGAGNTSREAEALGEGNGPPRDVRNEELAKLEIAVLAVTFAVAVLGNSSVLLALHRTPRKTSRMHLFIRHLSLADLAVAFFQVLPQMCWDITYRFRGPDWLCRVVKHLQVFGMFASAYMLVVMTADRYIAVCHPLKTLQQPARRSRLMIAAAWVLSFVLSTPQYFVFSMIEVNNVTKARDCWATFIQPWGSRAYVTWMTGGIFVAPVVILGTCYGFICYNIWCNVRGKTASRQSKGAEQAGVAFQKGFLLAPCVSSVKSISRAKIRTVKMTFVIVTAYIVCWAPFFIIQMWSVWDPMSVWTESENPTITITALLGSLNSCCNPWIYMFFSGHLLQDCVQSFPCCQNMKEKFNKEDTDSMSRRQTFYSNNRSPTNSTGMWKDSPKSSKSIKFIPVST
Sequence of D(3) dopamine receptor (P35462 whole entry): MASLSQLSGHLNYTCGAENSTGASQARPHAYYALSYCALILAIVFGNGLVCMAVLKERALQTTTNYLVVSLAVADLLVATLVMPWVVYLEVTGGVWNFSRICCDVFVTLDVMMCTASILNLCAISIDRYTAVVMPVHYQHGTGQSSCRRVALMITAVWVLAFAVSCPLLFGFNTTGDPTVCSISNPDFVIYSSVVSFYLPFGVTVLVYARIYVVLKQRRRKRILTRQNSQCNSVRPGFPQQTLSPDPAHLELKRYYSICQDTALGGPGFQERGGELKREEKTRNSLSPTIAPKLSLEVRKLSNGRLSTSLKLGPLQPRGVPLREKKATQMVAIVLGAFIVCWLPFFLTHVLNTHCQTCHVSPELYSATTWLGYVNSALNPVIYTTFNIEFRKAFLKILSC
Sequence of Epidermal growth factor receptor (P00533 whole entry): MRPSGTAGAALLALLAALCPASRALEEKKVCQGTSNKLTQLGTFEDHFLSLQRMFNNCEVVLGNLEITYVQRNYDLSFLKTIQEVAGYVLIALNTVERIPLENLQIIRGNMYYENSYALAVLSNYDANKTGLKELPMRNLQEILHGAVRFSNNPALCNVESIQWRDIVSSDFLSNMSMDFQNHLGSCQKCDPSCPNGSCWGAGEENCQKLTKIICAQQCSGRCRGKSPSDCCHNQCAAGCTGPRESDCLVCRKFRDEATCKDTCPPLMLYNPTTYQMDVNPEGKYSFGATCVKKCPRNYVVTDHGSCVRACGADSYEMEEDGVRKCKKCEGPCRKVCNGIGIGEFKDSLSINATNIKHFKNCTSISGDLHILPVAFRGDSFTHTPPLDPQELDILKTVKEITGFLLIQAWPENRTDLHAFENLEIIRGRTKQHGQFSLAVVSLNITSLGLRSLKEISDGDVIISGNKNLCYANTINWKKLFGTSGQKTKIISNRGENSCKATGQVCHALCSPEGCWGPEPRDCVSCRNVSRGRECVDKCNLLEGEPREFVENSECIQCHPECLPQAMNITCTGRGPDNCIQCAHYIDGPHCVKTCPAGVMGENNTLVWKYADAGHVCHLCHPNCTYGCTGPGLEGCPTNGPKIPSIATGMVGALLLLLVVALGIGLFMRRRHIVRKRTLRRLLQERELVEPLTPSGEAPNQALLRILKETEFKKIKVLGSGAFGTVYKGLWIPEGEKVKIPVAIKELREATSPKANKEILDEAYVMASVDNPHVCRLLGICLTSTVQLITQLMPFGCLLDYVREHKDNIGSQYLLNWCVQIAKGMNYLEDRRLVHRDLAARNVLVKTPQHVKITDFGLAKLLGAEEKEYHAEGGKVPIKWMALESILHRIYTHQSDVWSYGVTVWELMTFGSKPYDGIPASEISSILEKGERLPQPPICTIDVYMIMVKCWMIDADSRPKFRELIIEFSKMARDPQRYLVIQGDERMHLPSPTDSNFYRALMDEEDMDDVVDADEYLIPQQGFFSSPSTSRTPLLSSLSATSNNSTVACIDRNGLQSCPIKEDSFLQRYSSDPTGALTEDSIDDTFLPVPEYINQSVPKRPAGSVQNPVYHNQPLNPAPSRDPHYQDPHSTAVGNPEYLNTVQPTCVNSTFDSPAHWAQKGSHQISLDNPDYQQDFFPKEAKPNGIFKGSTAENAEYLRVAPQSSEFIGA

Structure (SMILES)	IC50 [1]	Ki [1]	IC50 ([2]; insect cells)	IC50 (D(3) dopamine receptor; cho)	IC50 [3]	Ki [3]	IC50 [4]	IC50 (Vasopressin V1a receptor)	IC50 (Caspase-1)	IC50 ([2]; read-out: IC50) [nM]	IC50 (D(3) dopamine receptor; read-out: IC50) [nM]	Ki (D(3) dopamine receptor) [nM]
O=C(O)CCCc1ccc(N(CCCl)CCCl)cc1 [CHLORAMBUCIL]	Not Active	Not Active	Not Active	Not Active	Not Active	Not Active	Not Active	Not Active	Not Active			
C[C@H](CCC(=O)O)[C@H]1CC[C@H]2[C@@H]3[C@H](O)C[C@@H]4C[C@H](O)CC[C@]4(C)[C@H]3C[C@H](O)[C@]12C [CHOLIC ACID]	Not Active	Not Active	Not Active	Not Active	Not Active	Not Active	Not Active	Not Active	Not Active			
Cc1cc(C2CCCCC2)n(O)c(=O)c1 [CICLOPIROX]	Not Active	Not Active	Not Active	Not Active	Not Active	Not Active	Not Active	Not Active	Not Active			
CC1=C2C(=CO[C@H](C)[C@H]2C)C(O)=C(C(=O)O)C1=O [CITRININ]	Not Active	Not Active	Not Active	Not Active	Not Active	Not Active	Not Active	Not Active	Not Active			
CC(C)(C)NCC(O)c1cc(Cl)c(N)c(Cl)c1 (stereo not drawn) [CLENBUTEROL]	Not Active	Not Active	Not Active	Not Active	Not Active	Not Active	Not Active	Not Active	Not Active			
CC(C)(Oc1ccc(Cl)cc1)C(=O)O [CLOFIBRIC ACID]	Not Active	Not Active	Not Active	Not Active	Not Active	Not Active	Not Active	Not Active	Not Active			
Clc1cccc(Cl)c1NC1=NCCN1 [CLONIDINE]	Not Active	Not Active	Not Active	Not Active	Not Active	Not Active	Not Active	Not Active	Not Active			
Cc1cc(C(C#N)c2ccc(Cl)cc2)c(Cl)cc1NC(=O)c1cc(I)cc(I)c1O (stereo not drawn) [CLOSANTEL]	Not Active	Not Active		Not Active	Not Active	Not Active	Not Active	Not Active	Not Active	564		
Cc1onc(-c2ccccc2Cl)c1C(=O)N[C@@H]1C(=O)N2[C@@H]1SC(C)(C)[C@@H]2C(=O)O [CLOXACILLIN]	Not Active	Not Active	Not Active	Not Active	Not Active	Not Active	Not Active	Not Active	Not Active			
CC1CC(OC(=O)C(O)c2ccccc2)CC(C)(C)C1 (stereo not drawn) [CYCLANDELATE]	Not Active	Not Active	Not Active	Not Active	Not Active	Not Active	Not Active	Not Active	Not Active			
Cc1c2oc3c(C)ccc(C(=O)N[C@@H]4C(=O)N[C@H](C(C)C)C(=O)N5CCC[C@H]5C(=O)N(C)CC(=O)N(C)[C@@H](C(C)C)C(=O)O[C@@H]4C)c3nc-2c(C(=O)N[C@@H]2C(=O)N[C@H](C(C)C)C(=O)N3CCC[C@H]3C(=O)N(C)CC(=O)N(C)[C@@H](C(C)C)C(=O)O[C@@H]2C)c(N)c1=O [DACTINOMYCIN] (I: T[dV]P[Sar][NMeV] / II: T[dV]P[Sar][NMeV]; ester I:1-I:C, II:1-II:C; linker I:N-II:N via Actinocin(1to9))	Not Active	Not Active	Not Active	Not Active	Not Active	Not Active	Not Active	Not Active	Not Active			
Cc1c(O)c(=O)ccn1C [DEFERIPRONE]	Not Active	Not Active	Not Active	Not Active	Not Active	Not Active	Not Active	Not Active	Not Active			
CNCCCN1c2ccccc2CCc2ccccc21 [DESIPRAMINE]	Not Active	Not Active	Not Active	Not Active	Not Active	Not Active	Not Active	Not Active	Not Active			
O=c1oc2ccccc2c(O)c1Cc1c(O)c2ccccc2oc1=O [DICUMAROL]	Not Active	Not Active	Not Active	Not Active	Not Active	Not Active	Not Active	Not Active	Not Active			
C[C@H]1O[C@@H](O[C@H]2[C@@H](O)C[C@H](O[C@H]3[C@@H](O)C[C@H](O[C@H]4CC[C@@]5(C)[C@H](CC[C@@H]6[C@@H]5C[C@@H](O)[C@]5(C)[C@@H](C7=CC(=O)OC7)CC[C@]65O)C4)O[C@@H]3C)O[C@@H]2C)C[C@H](O)[C@@H]1O [DIGOXIN]	Not Active	Not Active	Not Active	Not Active	Not Active	Not Active	Not Active	Not Active	Not Active			
CC(C)[C@@]1(NC(=O)[C@@H]2C[C@@H]3c4cccc5[nH]cc(c45)C[C@H]3N(C)C2)O[C@@]2(O)[C@@H]3CCCN3C(=O)[C@H](Cc3ccccc3)N2C1=O.CS(=O)(=O)O [DIHYDROERGOCRISTINE MESYLATE]	Not Active	Not Active	Not Active		Not Active	Not Active	Not Active	Not Active	Not Active		2.29	0.777
CC(=O)O[C@@]12CO[C@@H]1C[C@H](O)[C@@]1(C)C(=O)[C@H](O)C3=C(C)[C@@H](OC(=O)[C@H](O)[C@@H](NC(=O)OC(C)(C)C)c4ccccc4)C[C@@](O)([C@@H](OC(=O)c4ccccc4)[C@H]21)C3(C)C.O.O.O [DOCETAXEL]	Not Active	Not Active	Not Active	Not Active	Not Active	Not Active	Not Active	Not Active	Not Active			
COc1cc2nc(N3CCN(C(=O)C4COc5ccccc5O4)CC3)nc(N)c2cc1OC (stereo not drawn) [DOXAZOSIN]	Not Active	Not Active	Not Active	Not Active	Not Active	Not Active	Not Active	Not Active	Not Active			
C[C@H]1c2cccc(O)c2C(=O)C2=C(O)[C@]3(O)C(=O)C(C(N)=O)=C(O)[C@@H](N(C)C)[C@@H]3[C@@H](O)[C@@H]21.O [DOXYCYCLINE]	Not Active	Not Active	Not Active	Not Active	Not Active	Not Active	Not Active	Not Active	Not Active			
O=C(CCCN1CC=C(n2c(=O)[nH]c3ccccc32)CC1)c1ccc(F)cc1 [DROPERIDOL]	Not Active	Not Active	Not Active		Not Active	Not Active	Not Active	Not Active	Not Active		2.77	0.939
CC(C)[C@H]1C(=O)N2CCC[C@H]2[C@]2(O)O[C@](NC(=O)[C@@H]3C=C4c5cccc6[nH]cc(c56)C[C@H]4N(C)C3)(C(C)C)C(=O)N12 [ERGOCORNINE]	Not Active	Not Active	Not Active		Not Active	Not Active	Not Active	Not Active	Not Active		2.86	0.971
C[C@]12CC[C@@H]3c4ccc(O)cc4CC[C@H]3[C@@H]1CCC2=O [ESTRONE]	Not Active	Not Active	Not Active	Not Active	Not Active	Not Active	Not Active	Not Active	Not Active			
OC(Cn1cncn1)(Cn1cncn1)c1ccc(F)cc1F [FLUCONAZOLE]	Not Active	Not Active	Not Active	Not Active	Not Active	Not Active	Not Active	Not Active	Not Active			
CC(C)C(=O)Nc1ccc([N+](=O)[O-])c(C(F)(F)F)c1 [FLUTAMIDE]	Not Active	Not Active	Not Active	Not Active	Not Active	Not Active	Not Active	Not Active	Not Active			
N=C(N)NCCN1CCCCCCC1 [GUANETHIDINE]	Not Active	Not Active	Not Active	Not Active	Not Active	Not Active	Not Active	Not Active	Not Active			
